pEC50: −log10 of the molar value. Like-named read-outs stand apart in the source and are kept apart here. Blank lines part the entries; values can stand above or below the compound they belong to.
How the values were obtained:
CFTR = CFTR (Homo sapiens, UniProt P13569); experiment: Membrane Potential Dye, Enteroid Assay B; format: cell-based
In short: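 Membrane-potential fluorescence read over 15 min after chloride-free stimulation (forskolin 10 μM, IBMX 100 μM, Compound III 300 nM), with CaCCinh-A01 and Chicago Sky Blue present. Enteroids had 18-24 h compound exposure at 37 °C; activity given as % of the triple-combination corrector/potentiator reference response.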

Sequence of CFTR (P13569 with tags, fused parts or gaps DEL508-508): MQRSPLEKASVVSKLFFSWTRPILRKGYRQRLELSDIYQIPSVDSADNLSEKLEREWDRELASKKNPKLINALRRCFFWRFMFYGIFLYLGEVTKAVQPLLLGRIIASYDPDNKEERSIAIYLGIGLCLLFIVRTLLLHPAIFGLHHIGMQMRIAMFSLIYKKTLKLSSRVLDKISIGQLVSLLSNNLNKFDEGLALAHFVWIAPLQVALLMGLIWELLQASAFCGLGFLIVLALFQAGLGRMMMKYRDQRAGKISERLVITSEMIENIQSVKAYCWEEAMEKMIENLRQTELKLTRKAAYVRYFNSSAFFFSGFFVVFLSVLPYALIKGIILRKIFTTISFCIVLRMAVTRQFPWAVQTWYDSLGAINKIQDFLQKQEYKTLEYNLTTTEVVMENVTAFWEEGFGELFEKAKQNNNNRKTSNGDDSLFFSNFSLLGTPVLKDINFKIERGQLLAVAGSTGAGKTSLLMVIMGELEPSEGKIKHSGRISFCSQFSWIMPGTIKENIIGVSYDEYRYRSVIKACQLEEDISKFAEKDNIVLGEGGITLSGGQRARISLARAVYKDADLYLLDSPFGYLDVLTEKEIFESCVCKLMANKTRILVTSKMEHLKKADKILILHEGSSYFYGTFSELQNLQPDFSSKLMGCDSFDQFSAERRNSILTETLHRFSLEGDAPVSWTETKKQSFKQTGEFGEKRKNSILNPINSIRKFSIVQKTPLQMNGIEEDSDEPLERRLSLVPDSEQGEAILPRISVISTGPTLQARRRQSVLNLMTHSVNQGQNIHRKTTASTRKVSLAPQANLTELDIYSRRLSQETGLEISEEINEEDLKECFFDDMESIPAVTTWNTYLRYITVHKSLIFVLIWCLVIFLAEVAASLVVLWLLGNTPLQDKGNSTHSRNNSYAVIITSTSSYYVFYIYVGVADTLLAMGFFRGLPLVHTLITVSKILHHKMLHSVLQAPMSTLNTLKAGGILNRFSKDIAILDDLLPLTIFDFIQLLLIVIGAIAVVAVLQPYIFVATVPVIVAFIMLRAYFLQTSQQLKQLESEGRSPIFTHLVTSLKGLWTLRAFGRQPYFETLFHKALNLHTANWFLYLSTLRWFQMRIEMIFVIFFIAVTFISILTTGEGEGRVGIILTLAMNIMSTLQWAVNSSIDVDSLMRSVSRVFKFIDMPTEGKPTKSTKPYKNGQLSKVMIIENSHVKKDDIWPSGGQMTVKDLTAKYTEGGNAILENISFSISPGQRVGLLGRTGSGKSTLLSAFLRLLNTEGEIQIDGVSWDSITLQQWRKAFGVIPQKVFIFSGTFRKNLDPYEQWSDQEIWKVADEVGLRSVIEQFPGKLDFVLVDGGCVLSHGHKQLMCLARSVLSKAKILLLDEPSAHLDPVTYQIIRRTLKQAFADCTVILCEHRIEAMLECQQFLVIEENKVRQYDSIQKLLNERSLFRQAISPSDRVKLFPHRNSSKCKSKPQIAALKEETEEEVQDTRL

Structure (SMILES): Cc1cccc(C)c1-c1nc2nc(c1C)OC[C@@H](CC(C)C)N(C1CC3(CC(NC(=O)OC(C)(C)C)C3)C1)C(=O)c1cccc(c1)S(=O)(=O)N2 (stereo partly shown)
ring closure, isolated yield (from Cc1cccc(C)c1-c1nc(NS(=O)(=O)c2cccc(C(=O)O)c2)nc(OC[C@@H](CC(C)C)NC2CC3(CC(NC(=O)OC(C)(C)C)C3)C2)c1C, amide bond, 13-membered ring, HATU/DIEA, DMF, 14.1 mM, 3.0 h, 2 steps): 45%

Structure (SMILES): C[C@@H]1CC=CCC[C@](OCc2ccccc2)(C(F)(F)F)C2=NN=C(O2)c2nc(c(C(F)(F)F)cc2N(C(=O)OC(C)(C)C)C(=O)OC(C)(C)C)O1 (mixture of isomers)
ring closure, isolated yield (from C=CCC[C@@](OCc1ccccc1)(c1nnc(-c2nc(O[C@H](C)CC=C)c(C(F)(F)F)cc2N(C(=O)OC(C)(C)C)C(=O)OC(C)(C)C)o1)C(F)(F)F, rcm bond, 14-membered ring, Grubbs 1st generation, DCE, 8.92 mM, 75.0 °C, 5.25 h): 53%

Structure (SMILES): CCc1c(Cl)nc2nc1Oc1cccc(c1)C(=O)Nc1cccc(c1)S(=O)(=O)N2
ring closure, isolated yield (from CCc1c(Cl)nc(NS(=O)(=O)c2cccc(N)c2)nc1Oc1cccc(C(=O)O)c1, amide bond, 14-membered ring, HATU/DIEA, DMF, 53.0 mM, 0.33 h, 2 steps): 19%
ring closure, isolated yield (from CCc1c(Cl)nc(NS(=O)(=O)c2cccc(N)c2)nc1Oc1cccc(C(=O)O)c1, amide bond, 14-membered ring, HATU/DIEA, DMF, 50.0 °C, 2.5 h, 4 steps): 8%

Structure (SMILES): CC(C)(C)c1c(Cl)nc2nc1OC1CN(Cc3ccccc31)C(=O)c1cccc(c1)S(=O)(=O)N2 (stereo not shown)
ring closure, isolated yield (from CC(C)(C)c1c(Cl)nc(NS(=O)(=O)c2cccc(C(=O)N3Cc4ccccc4C(O)C3)c2)nc1Cl, snar bond, 13-membered ring, NaH, NMP, 8.0 mM, 70.0 °C, 2.0 h): 39%

Structure (SMILES): Cc1cccc(C)c1-c1nc2nc(c1Br)OC[C@@H](CC(C)C)N(C1CC3(CC3)C1)C(=O)c1cccc(c1)S(=O)(=O)N2
ring closure, isolated yield (from Cc1cccc(C)c1-c1nc(NS(=O)(=O)c2cccc(C(=O)O)c2)nc(OC[C@@H](CC(C)C)NC2CC3(CC3)C2)c1Br, amide bond, 13-membered ring, HATU/DIEA, NMP, 105.0 mM, 24.0 h): 53%

Ent. B Max Activity (CFTR): ++ (++ is 30-60%)
pEC50 (CFTR; read-out: Ent. B EC50): 5.52 to 6.00
Structure (SMILES): Cc1cccc(C)c1-c1nc2nc(c1C)OC[C@@H](CCC(C)(C)O)N(C1CC3(CC3)C1)C(=O)c1cccc(c1)S(=O)(=O)N2 [Compound 106, (11R)-6-(2,6-dimethylphenyl)-11-(3-hydroxy-3-methyl-butyl)-7-methyl-2,2-dioxo-12-spiro[2.3]hexan-5-yl-9-oxa-2λ^6-thia-3,5,12,19-tetrazatricyclo[12.3.1.14,8]nonadeca-1(18),4(19),5,7,14,16-hexaen-13-one]
ring closure, isolated yield (from Cc1cccc(C)c1-c1nc(NS(=O)(=O)c2cccc(C(=O)O)c2)nc(OC[C@@H](CCC(C)(C)O)NC2CC3(CC3)C2)c1C, amide bond, 13-membered ring, T3P/TEA, DMF/EtOAc, 51.6 mM, 17.0 h): 31%

Structure (SMILES): CCc1c(Cl)nc2nc1Oc1ccc(Cl)c(c1)C(=O)Nc1cccc(c1)S(=O)(=O)N2
ring closure, isolated yield (from CCc1c(Cl)nc(NS(=O)(=O)c2cccc(N)c2)nc1Oc1ccc(Cl)c(C(=O)O)c1, amide bond, 14-membered ring, HATU/DIEA, DMF, 0.42 h, 3 steps): 7%
